What all share (test): MIC microbroth dilution
Holding throughout (assay type): cell-based

Assay [1] deals with A. baumannii GC 7684 AmpC, AmpC. The note with it: Acinetobacter baumannii, β-lactamase class C, MHBII, 35° C. 18 hr, read-out: Minimal Inhibitory Concentration. The protocol:
(§1) The in vitro activities of the antibiotics were determined by the microbroth dilution method as recommended by the National Committee for Clinical Laboratory Standards (NCCLS). (NCCLS. 2000. Methods for Dilution Antimicrobial Susceptibility Tests for Bacteria That Grow Aerobically; Approved Standards: M7-A5, vol. 19. National Committee for Clinical Laboratory Standards, Villanova, Pa.). Mueller-Hinton II broth (MHBII) (BBL Cockeysville, Md.), was used for the testing procedure. […]. The plates were incubated for 18-22 hours at 35 C. in ambient air.

The subject of assay [2] is A. baumannii GC 7687 AmpC. The following applies: Acinetobacter baumannii, GC7687AMPC, β-lactamase class C, MHBII, 35° C. 18 hr, read-out: Minimal Inhibitory Concentration. The method, then:
as §1

The test system of assay [3] is A. baumannii GC 7692 TEM-1, AmpC. The note with it: Acinetobacter baumannii, 18 h, read-out: Minimal Inhibitory Concentration. The protocol: as §1
Assay [4] concerns E. coli GAR 5929 TEM, OXA, Act-1 , CTX (By PCR only). The following applies: Escherichia coli, β-lactamase class A, C, D, MHBII, 35° C. 18 hr, read-out: Minimal Inhibitory Concentration. The protocol: as §1
Assay [5] concerns E. coli GC 2146 (TEM-1; SHV-7). The following applies: Escherichia coli, β-lactamase class A, A (ESBL), MHBII, 35° C. 18 hr, read-out: Minimal Inhibitory Concentration. The method, then:
as §1

Assay [6] has as its system E. coli GC 2149 (ACT-1; TEM-1 + pl 5.6). The following applies: Escherichia coli, β-lactamase class A, A (ESBL), C, MHBII, 35° C. 18 hr, read-out: Minimal Inhibitory Concentration. The protocol:
as §1

A further assay has as its system E. coli GC 2253 (IRT-2). The following applies: Escherichia coli, 18 h, read-out: Minimal Inhibitory Concentration. The protocol: as §1
Another assay deals with E. coli GC 2805 (CcrA). The following applies: Escherichia coli, 18 h, read-out: Minimal Inhibitory Concentration. The method, then: as §1
Assay [7] relates to E. coli GC 4971 OXA-1, TEM-1. The note with it: Escherichia coli, β-lactamase class A, D, MHBII, 35° C. 18 hr, read-out: Minimal Inhibitory Concentration. The method, then: as §1
Assay [8] deals with E. coli GC 6197 (TEM-1 + SHV-7 + CMY-2). The note with it: Escherichia coli, β-lactamase class A, A (ESBL), C, MHBII, 35° C. 18 hr, read-out: Minimal Inhibitory Concentration. The protocol:
as §1

Another assay has as its system E. coli GC 6368 (SHV-7). The following applies: Escherichia coli, β-lactamase class A (ESBL), MHBII, 35° C. 18 hr, read-out: Minimal Inhibitory Concentration. The method, then: as §1
For the next assay, the system named is E. coli GC 6539 CMY-2. The following applies: Escherichia coli, GC6539CMY2, β-lactamase class C, MHBII, 35° C. 18 hr, read-out: Minimal Inhibitory Concentration. The method, then: as §1
The test system of assay [9] is E. coli LSU 80-8 GC 6265 TEM-1. The following applies: Escherichia coli, read-out: MIC* (minimum inhibitory concentration). The protocol:
as §1

In another assay the test system is K. pn GC 1510 (TEM-10). The note with it: Klebsiella pneumoniae, β-lactamase class A (ESBL), MHBII, 35° C. 18 hr, read-out: Minimal Inhibitory Concentration. The protocol:
as §1

Assay [10] concerns K. pn GC 1554 (TEM-1 + TEM-26 + SHV-1). The note with it: Klebsiella pneumoniae, β-lactamase class A, A (ESBL), MHBII, 35° C. 18 hr, read-out: Minimal Inhibitory Concentration. The method, then: as §1
In assay [11] the test system is K. pn GC 6651 (TEM-1 + SHV-1 + SHV-5). The note with it: Klebsiella pneumoniae, β-lactamase class A, A (ESBL), MHBII, 35° C. 18 hr, read-out: Minimal Inhibitory Concentration. The method, then:
as §1

The test system of assay [12] is K. pneumoniae GC 2825 Act 1 + 3 additional. The following applies: Klebsiella pneumoniae, β-lactamase class A, A (ESBL), C, MHBII, 35° C. 18 hr, read-out: Minimal Inhibitory Concentration. The protocol:
as §1

The subject of assay [13] is K. pneumoniae GC 7636 TEM-1 KPC-2 SHV-12. The note with it: Klebsiella pneumoniae, 18 h, read-out: Minimal Inhibitory Concentration. The protocol:
as §1

For assay [14], the system named is K. pneumoniae GC 7645 TEM-30 TEM-1 KPC-2 SHV-12. The following applies: Klebsiella pneumoniae, 18 h, read-out: Minimal Inhibitory Concentration. The method, then: as §1
In assay [15] the test system is K. pneumoniae GC 7820 Act 1. The following applies: Klebsiella pneumoniae, GC7820ACT1, β-lactamase class C, MHBII, 35° C. 18 hr, read-out: Minimal Inhibitory Concentration. The method, then: as §1
For assay [16], the system named is K. pneumoniae GC 7823 Fox 5. The following applies: Klebsiella pneumoniae, GC7823FOX5, β-lactamase class C, MHBII, 35° C. 18 hr, read-out: Minimal Inhibitory Concentration. The protocol:
as §1

Assay [17] relates to M. morganii GC 1617 TEM-10 + inducible AmpC. The note with it: Morganella morganii, β-lactamase class A (ESBL), C, MHBII, 35° C. 18 hr, read-out: Minimal Inhibitory Concentration. The method, then:
as §1

Assay [18] concerns P. aeruginosa ATCC 27853 AmpC-inducable. The following applies: Pseudomonas aeruginosa, ATCC27853, β-lactamase class C, MHBII, 35° C. 18 hr, read-out: Minimal Inhibitory Concentration. The protocol:
as §1

The test system of assay [19] is P. aeruginosa PT 8411 PTZ-R*. The note with it: Pseudomonas aeruginosa; P. aeruginosa PT 8411, piperacillin-tazobactam-resistant; MHBII, 35° C. 18 hr; read-out: Minimal Inhibitory Concentration. The protocol: as §1

≈ marks a conversion by molar mass, not a printed value. A value given as a limit tells only on which side of the number the result lay.

As for `CO/N=C(\C(=O)N[C@@H]1C(=O)N2C(C(=O)[O-])=C(C[N+]3(C)CCCC3)CS[C@H]12)c1csc(N)n1` [Cefepime], the MIC was 16 µg/mL (≈ 33.3 µM) in [1]; 16 µg/mL (≈ 33.3 µM) in assay [2]; more than 16 µg/mL in assay [3]; more than 16 µg/mL in [4]; more than 16 µg/mL in assay [5]; 16 µg/mL (≈ 33.3 µM) in assay [6]. For the same compound, the MIC with E. coli GC 2253 (IRT-2) was 0.03 µg/mL (≈ 0.0624 µM); with E. coli GC 2805 (CcrA), more than 16 µg/mL; in [7] it was 2 µg/mL (≈ 4.16 µM); in assay [8], more than 16 µg/mL; in the assay with E. coli GC 6368 (SHV-7) it was 2 µg/mL (≈ 4.16 µM); in the assay on E. coli GC 6539 CMY-2, 2 µg/mL (≈ 4.16 µM). The MIC in assay [9] was 0.06 µg/mL (≈ 0.125 µM); in the assay on K. pn GC 1510 (TEM-10), 0.5 µg/mL (≈ 1.04 µM); in assay [10], 8 µg/mL (≈ 16.6 µM); in assay [11] it was 2 µg/mL (≈ 4.16 µM); in assay [12], 2 µg/mL (≈ 4.16 µM); in assay [13] it was more than 16 µg/mL. For the same compound, the MIC is more than 16 µg/mL in assay [14]; 0.5 µg/mL (≈ 1.04 µM) in assay [15]; 1 µg/mL (≈ 2.08 µM) in [16]; 0.25 µg/mL (≈ 0.52 µM) in [17]; 2 µg/mL (≈ 4.16 µM) in assay [18]; 16 µg/mL in assay [19].
